Reference: PubChem BioAssay AID248 (DTP/NCI, 2004)
Where “and” joins values, the source holds several entries; their conditions need not be identical. Equal values may be shown once. Toxic doses and inconclusive results are not listed. Rule as the data show it: active = T/C of 150% or more; inactive = T/C below 125%.

System: L1210 leukemia ip in BDF1 mice, survival T/C
Assay: NCI In Vivo Anticancer Drug Screen. Data for tumor model L1210 Leukemia (intraperitoneal) in B6D2F1 (BDF1) mice
Details: endpoint: mean survival time, higher = longer survival
Outline: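 Survival endpoint. Drug-treated group vs vehicle group, expressed as T divided by C. Tumor passaged by transplantation.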

[1] = dose: 100.0 mg/kg/injection, schedule: Q01DX009 (ip), vehicle: saline with Tween-80
[2] = dose: 100.0 mg/kg/injection, schedule: Q04DX003 (ip), vehicle: saline with Tween-80
[3] = dose: 200.0 mg/kg/injection, schedule: Q04DX003 (ip), vehicle: saline with Tween-80
[4] = dose: 400.0 mg/kg/injection, schedule: Q04DX003 (ip), vehicle: saline with Tween-80
[5] = dose: 100.0 mg/kg/injection, schedule: Q04DX003 (ip), vehicle: Klucel (hydroxypropylcellulose) (HPC)
[6] = dose: 200.0 mg/kg/injection, schedule: Q04DX003 (ip), vehicle: Klucel (hydroxypropylcellulose) (HPC)
[7] = dose: 400.0 mg/kg/injection, schedule: Q04DX003 (ip), vehicle: Klucel (hydroxypropylcellulose) (HPC)
[8] = dose: 100.0 mg/kg/injection, schedule: Q01DX001 (ip), vehicle: carboxymethylcellulose (CMC)
[9] = dose: 200.0 mg/kg/injection, schedule: Q01DX001 (ip), vehicle: carboxymethylcellulose (CMC)
[10] = dose: 100.0 mg/kg/injection, schedule: Q01DX001 (ip), vehicle: saline
[11] = dose: 200.0 mg/kg/injection, schedule: Q01DX001 (ip), vehicle: saline
[12] = dose: 400.0 mg/kg/injection, schedule: Q01DX001 (ip), vehicle: saline
[13] = dose: 100.0 mg/kg/injection, schedule: Q04DX002 (ip), vehicle: Klucel (hydroxypropylcellulose) (HPC)
[14] = dose: 200.0 mg/kg/injection, schedule: Q04DX002 (ip), vehicle: Klucel (hydroxypropylcellulose) (HPC)
[15] = dose: 400.0 mg/kg/injection, schedule: Q04DX002 (ip), vehicle: Klucel (hydroxypropylcellulose) (HPC)
[16] = dose: 100.0 mg/kg/injection, schedule: Q01DX009 (ip), vehicle: saline
[17] = dose: 100.0 mg/kg/injection, schedule: Q04DX003 (ip), vehicle: saline
[18] = dose: 200.0 mg/kg/injection, schedule: Q01DX009 (ip), vehicle: saline
[19] = dose: 200.0 mg/kg/injection, schedule: Q04DX003 (ip), vehicle: saline
[20] = dose: 400.0 mg/kg/injection, schedule: Q01DX009 (ip), vehicle: saline
[21] = dose: 400.0 mg/kg/injection, schedule: Q04DX003 (ip), vehicle: saline

Measured: T/C

CC1CC(C)CC(C(O)C2CCCCC2)C1 (stereo not drawn)
inactive: dose: 75.0 mg/kg/injection, schedule: Q01DX001 (ip), vehicle: other 101 % of control | dose: 150.0 mg/kg/injection, schedule: Q01DX001 (ip), vehicle: other 106 % of control

Nc1nc(C=O)c(Cc2ccc(Br)cc2)c(=O)[nH]1
inactive: [1] 118 % of control | [2] 100 % of control | [3] 105 % of control | [4] 102 % of control

Cc1ccc(NC(=O)Nc2ccc(S(N)(=O)=O)cc2)c([N+](=O)[O-])c1
inactive: [5] 88 % of control | [6] 89 % of control | [7] 88 % of control

CN(C)c1ncnc2c1ncn2C1CCC(CO)C1 (stereo not drawn)
inactive: [8] 105 % of control | [9] 96 % of control

O=[N+]([O-])c1cccc(S(=O)(=O)NNc2c(Cl)cc(Cl)cc2Cl)c1
inactive: [5] 94 % of control | [6] 93 % of control | [7] 96 % of control

OCc1ccc(O)cn1
inactive: [10] 97 % of control | [11] 87 % of control | [12] 94 % of control

CC(C)CCN1C(c2ccccc2)=CN(Cc2ccccc2)C=C1c1ccccc1
inactive: [13] 100 % of control | [14] 92 % of control | [15] 95 % of control

CCCCCCCCCCOc1ccc(OC)cc1
inactive: dose: 100.0 mg/kg/injection, schedule: Q04DX002 (ip), vehicle: other 103 % of control | dose: 200.0 mg/kg/injection, schedule: Q04DX002 (ip), vehicle: other 95 % of control | dose: 400.0 mg/kg/injection, schedule: Q04DX002 (ip), vehicle: other 106 % of control

COc1cc(OC)c(OC)cc1/C=C\c1ccc2ccccc2[n+]1C
inactive: dose: 25.0 mg/kg/injection, schedule: Q04DX003 (ip), vehicle: saline with Tween-80 101 % of control | dose: 50.0 mg/kg/injection, schedule: Q04DX003 (ip), vehicle: saline with Tween-80 90 % of control

C[CH2][Pb]([CH2]C)([CH2]C)[O]S(=O)(=O)c1ccc(C)cc1
inactive: dose: 1.56 mg/kg/injection, schedule: Q01DX009 (ip), vehicle: saline with Tween-80 95 % of control | dose: 3.13 mg/kg/injection, schedule: Q01DX009 (ip), vehicle: saline with Tween-80 96 % of control

CCOC1NC(C)(C)CO1 (stereo not drawn)
inactive: [16] 101 % of control | [17] 115 % of control | [18] 101 % of control | [19] 97 % of control | [20] 97 % of control | [21] 121 % of control

NC(N)=NCCCC(N=Cc1ccccc1O)C(=O)O (stereo not drawn)
inactive: [10] 96 % of control | [11] 102 % of control | [12] 95 % of control

COc1ccc2ccc(OC)c(C=O)c2c1
inactive: dose: 75.0 mg/kg/injection, schedule: Q01DX009 (ip), vehicle: Klucel (hydroxypropylcellulose) (HPC) 98 % of control | dose: 150.0 mg/kg/injection, schedule: Q01DX009 (ip), vehicle: Klucel (hydroxypropylcellulose) (HPC) 101 % of control | dose: 300.0 mg/kg/injection, schedule: Q01DX009 (ip), vehicle: Klucel (hydroxypropylcellulose) (HPC) 98 % of control

CCCCC(CC)COP(=O)(CC(CC)CCCC)OCC(CC)CCCC (stereo not drawn)
inactive: dose: 50.0 mg/kg/injection, schedule: Q01DX009 (ip), vehicle: saline 111 % of control | [16] 107 % of control

CCOC(=O)C1CC2(c3ccccc3)C(=O)C1(c1ccccc1)C(c1ccccc1)=C2c1ccccc1 (stereo not drawn)
inactive: dose: 50.0 mg/kg/injection, schedule: Q01DX001 (ip), vehicle: carboxymethylcellulose (CMC) 100 % of control | [8] 94 % of control | [9] 100 % of control | dose: 400.0 mg/kg/injection, schedule: Q01DX001 (ip), vehicle: carboxymethylcellulose (CMC) 97 % of control

CCNC(=O)NCc1ccc(C)cc1
inactive: [13] 102 % of control | [14] 105 % of control | [15] 112 % of control

CSC(c1ccccc1)=[N+]1CCOCC1
inactive: dose: 50.0 mg/kg/injection, schedule: Q01DX009 (ip), vehicle: saline sonified 100 % of control | dose: 100.0 mg/kg/injection, schedule: Q01DX009 (ip), vehicle: saline sonified 94 % of control | [5] 102 % of control | dose: 200.0 mg/kg/injection, schedule: Q01DX009 (ip), vehicle: saline sonified 100 % of control | [6] 98 % of control

O=C(NC(CSSCC(NC(=O)OCc1ccccc1)C(=O)O)C(=O)O)OCc1ccccc1 (stereo not drawn)
inactive: dose: 85.0 mg/kg/injection, schedule: Q01DX009 (ip), vehicle: other 98 % of control | [16] 94 % of control and 98 % of control | dose: 100.0 mg/kg/injection, schedule: Q04DX003 (ip), vehicle: other 98 % of control | [17] 90 % of control | dose: 135.0 mg/kg/injection, schedule: Q01DX009 (ip), vehicle: other 88 % of control | dose: 200.0 mg/kg/injection, schedule: Q01DX009 (ip), vehicle: other 97 % of control | [18] 118 % of control and 92 % of control | dose: 200.0 mg/kg/injection, schedule: Q04DX003 (ip), vehicle: other 88 % of control | [19] 102 % of control | dose: 300.0 mg/kg/injection, schedule: Q01DX009 (ip), vehicle: other 99 % of control | [20] 94 % of control and 104 % of control | dose: 400.0 mg/kg/injection, schedule: Q04DX003 (ip), vehicle: other 96 % of control | [21] 101 % of control

O=C1c2ccccc2C(O)(O)C1(O)C1(O)C(=O)c2ccccc2C1(O)O (stereo not drawn)
inactive: [8] 109 % of control | [9] 103 % of control

CC(C)(C)c1cc([N+](C)(C)C)cc(C(C)(C)C)n1
inactive: dose: 6.25 mg/kg/injection, schedule: Q01DX001 (ip), vehicle: saline 97 % of control | dose: 12.5 mg/kg/injection, schedule: Q01DX001 (ip), vehicle: saline 112 % of control | dose: 25.0 mg/kg/injection, schedule: Q01DX001 (ip), vehicle: saline 105 % of control

O=[N+]([O-])c1ccccc1N1CCCCC1
inactive: [5] 97 % of control | [6] 89 % of control | [7] 109 % of control

CCCCC(CC)COC(C)=O (stereo not drawn)
inactive: [1] 94 % of control | [2] 98 % of control | dose: 200.0 mg/kg/injection, schedule: Q01DX009 (ip), vehicle: saline with Tween-80 102 % of control | [3] 93 % of control | dose: 400.0 mg/kg/injection, schedule: Q01DX009 (ip), vehicle: saline with Tween-80 91 % of control | [4] 92 % of control

O=[N+]([O-])c1cc(Cl)c(Cl)c([N+](=O)[O-])c1O
inactive: dose: 25.0 mg/kg/injection, schedule: Q01DX009 (ip), vehicle: acetone 92 % of control | dose: 50.0 mg/kg/injection, schedule: Q01DX009 (ip), vehicle: acetone 97 % of control | dose: 50.0 mg/kg/injection, schedule: Q04DX003 (ip), vehicle: acetone 95 % of control | [10] 95 % of control | dose: 100.0 mg/kg/injection, schedule: Q01DX009 (ip), vehicle: acetone 95 % of control | dose: 100.0 mg/kg/injection, schedule: Q04DX003 (ip), vehicle: acetone 89 % of control | dose: 150.0 mg/kg/injection, schedule: Q01DX009 (ip), vehicle: acetone 100 % of control | [11] 93 % of control
